Earlier results, collected in US10232037B2, “Supramolecular hydrogel of fMLF-based molecules and use thereof” (BRANDEIS UNIVERSITY, priority 2014, dated 2019).

Tested on: neutrophils
Details: aqueous solution, literature

Q: For `CSCC[C@H](NC=O)C(=O)N[C@@H](CC(C)C)C(=O)N[C@@H](Cc1ccccc1)C(=O)O` [fMLF, N-formyl-L-methionyl-L-leucyl-L-phenylalanine], which “duration of neutrophil accumulation effect” value is on record?
A: 2 to 6 h
